The results in this text go back to patent publication US8227423B2 (priority 2004, dated 2012).

Ends that are not written are not given here.

One data set has as its system Bacillus subtilis. In kind it is cell-based.

For the sequence “TRKKLFHIFHATIRSR [PAD-1.17, TRKKLFHIFHATIRSR]”, the “detergent-like (lytic) action” value in the data set on sheep red blood cells is on record as “did not appear to act as a detergent”. For RFARKGALRQKNV [Protein kinase C], in the data set on Bacillus subtilis, the “antibacterial effect in time kill assay (CFU)” value is “no effect”.
